# Experimental data reported in patent publication US11344553B2, “Substituted pyrazolopyrimidines useful as kinases inhibitors” (TELIGENE LTD, priority 2017, dated 2022).
# Like-named read-outs stand apart in the source and are kept apart here.
# Legend:
# [1] = Pharmacokinetic study, IV and oral, bioavailability; assay type: in vivo; conditions: plasma, oral; rat; 2 mg/kg IV, 5 mg/kg orally; read-out: F (%) oral bioavailability
# Excerpt: (d) Pharmacokinetic Study of a Representative Number of Compounds A representative protocol for the PK (pharmacokinetic) assay was as followed: Compounds were given either IV or orally to the same animals. […] Analysis: LC-MS/MS was used to calculate PK parameters: t1/2, tmax, Cmax, Vss and AUC, etc. The following TABLE D lists selected compounds and their bioavailability.
# [2] = Solubility measurement in pH 4.0 buffer (HPLC); assay type: physicochemical; conditions: pH 4.0 buffer solution (20 mM), aqueous buffer, thermodynamic from solid; pH 4.0 buffer (20 mM), 25° C.
# Procedure: (c) Solubility Measurement of a Representative Number of Compounds
# Solubility measurement procedure may include:
# Preparation of reference standard solution: 2 mg of the testing compound was added individually to 100 mL volumetric flask each. The compound was diluted with acetonitrile to 100 mL.
# Preparation of sample solution: 2 mg of the testing compound was added individually to 2 mL eppendorf tube (EP), followed by the addition of 1 mL of pH 4.0 buffer solution (20 mM). The solution was shaken for 2 minutes and left for 30 minutes at 25° C. After standing for 30 minutes, precipitate was formed at the bottom of the EP. The solution was filtered through a 0.2 μm membrane filter, and then diluted by 50 times with water.
# The standard and sample solutions were injected into the HPLC on a Shim-Pack CLC-ODS C18 column (150 mm×6.0 mm, Sum) with the same volume. The mobile phase consists of acetonitrile with 2% trichloromethane—20 mM KH2PO4 buffer (pH=7.0) at a flow rate of 1 mL/minutes (40:60). The detection wavelength was at 264 nm. Calculation: solubility of sample=the concentration of standard×Area of sample×50/Area of standard.
# The following Table C lists solubility data for selected compounds.
# [3] = One-month toxicity study in rat; assay type: in vivo; conditions: 30 mg/kg and 100 mg/kg, end of administration and recovery periods
# Procedure: A representative number of compounds, including Compound 1 (LOXO-101) and Compound 3, were tested in a typical one-month toxicity studies in rat with dosages of 30 mg/kg and 100 mg/kg.
# TEL-NTRK1-BaF3 cell = TEL-NTRK1-BaF3 cell assay (CellTiter-Glo viability, 72 hours); assay type: cell-based
# Procedure: (b) A Representative Number of Compounds were Assayed Against TEL-NTRK1-BaF3 Cell.
# I. Prepare Compound Plate
# Compounds to be assayed were dissolved in 100% DMSO to prepare a […] mother solution, which underwent 3× series dilution to prepare solutions with concentrations of 10 mM, 3.333 mM, 1.111 mM, 0.370 mM, 0.123 mM, 0.041 mM, 0.014 mM, all of which stored in 0.5 mL sterile eppendorf (Corning, N.Y., USA). At the same time prepare a blank sample as control containing DMSO only with the same volume as the compound solutions. The 9 samples on the Compound plate were store at −20° C. in vacuum.
# II. Cell Culture Conditions
# TEL-NTRK1-BaF3 cell line was cultured in RPMI 1640 (Corning, N.Y., USA)+10% fetal calf serum (Gibco/Invitrogen, USA) for two generations after resuscitation. Stored for future use.
# III. Assay and Data Analysis
# Cells (2,000-2,500 cells per well) at log phase were harvested and inoculated in wells of a white, opaque cell culture plate (Corning 3570, NY, USA). The volume of suspensions comprising cells in each well was 100 μL. Compounds from the Compound plate were added 0.1 μL per well to the cell culture plate to reach a final compound concentrations of 10 μM, 3.3 μM, 1.1 μM, 0.37 μM, 0.12 μM, 0.04 μM, and 0.014 μM. Incubated at 37° C. and 5% CO2 culture chamber for 72 hours. Ten μL CellTiter-Glo® Luminescent Cell Viability Assay Reagent was added to each well, wait for 10 minutes, then read using Evision Plate-Reader.
# The following Table B lists compounds representative of the disclosure and their activity in TEL-NTRK1-BaF3 Cell assay.
# [4] = Brain penetration (brain to plasma ratio); assay type: in vivo
# TRK-A = TRK-A (Homo sapiens (Human), UniProt P04629); assay: In vitro kinase activity inhibition assay (Caliper), TRK-A; assay type: biochemical
# Sequence of TRK-A (P04629 33-796, species assumed): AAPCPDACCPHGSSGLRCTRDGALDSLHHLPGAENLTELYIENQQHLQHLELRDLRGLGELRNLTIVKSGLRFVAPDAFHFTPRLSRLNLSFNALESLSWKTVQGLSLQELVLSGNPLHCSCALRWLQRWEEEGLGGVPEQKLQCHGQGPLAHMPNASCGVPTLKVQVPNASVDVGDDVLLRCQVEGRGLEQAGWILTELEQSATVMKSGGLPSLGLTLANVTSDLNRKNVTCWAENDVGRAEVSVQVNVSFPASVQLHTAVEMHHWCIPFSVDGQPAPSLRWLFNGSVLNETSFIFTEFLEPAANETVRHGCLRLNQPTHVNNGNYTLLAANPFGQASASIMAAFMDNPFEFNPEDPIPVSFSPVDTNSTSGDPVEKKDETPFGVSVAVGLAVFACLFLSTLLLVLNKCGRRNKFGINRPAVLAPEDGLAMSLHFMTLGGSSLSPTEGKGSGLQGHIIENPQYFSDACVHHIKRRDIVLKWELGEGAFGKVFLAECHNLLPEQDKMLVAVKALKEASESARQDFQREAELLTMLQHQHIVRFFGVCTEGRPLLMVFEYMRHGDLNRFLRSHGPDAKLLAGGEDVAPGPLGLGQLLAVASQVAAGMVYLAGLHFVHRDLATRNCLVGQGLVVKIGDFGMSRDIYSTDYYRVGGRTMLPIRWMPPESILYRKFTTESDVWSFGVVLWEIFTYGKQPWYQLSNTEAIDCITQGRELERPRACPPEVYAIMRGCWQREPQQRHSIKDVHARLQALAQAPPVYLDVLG
# Procedure: (§1) (a) An In Vitro Assay which Determines the Ability of a Test Compound to Inhibit Kinase Activity
# (§2) I. Prepare 1× Kinase Base Buffer and Stop Buffer for Testing Kinases
# 1) 1× Kinase base buffer (for TRK-A)
# (§3) II. Prepare Source Plate with Compound
# (§4) 1) Dilute the compound to 50× of the final concentration in reaction by 100% DMSO. Transfer 100 μl of this compound dilution to a well in a 96-well plate. For example, if the desired highest inhibitor concentration is 10 μM, then prepare a 500 μM of compound DMSO solution in this step.
# (§5) 2) Perform 3× series dilution of the compound dilution obtained in step 1) with 100% DMSO to provide 9 more diluted solutions of the compound.
# (§6) 3) Add 100 μl of 100% DMSO to two empty wells for no compound control and no enzyme control in the same 96-well plate. Mark the plate as source plate.
# (§7) 4) Prepare intermediate plate
# (§8) Transfer 10 μl of compound from the source plate to a new 96-well plate as the intermediate plate.
# (§9) Add 90 μl of 1× Kinase base buffer to each well of the intermediate plate.
# (§10) Mix the compounds in intermediate plate for […] on a shaker.
# Transfer 5 μl of each well from the 96-well intermediate plate to a 384-well plate in duplicates. For example, A1 of the 96-well plate is transferred to A1 and A2 of the 384-well plate. A2 of the 96-well plate is transferred to A3 and A4 of the 384-well plate, and so on. […]
# ROS1 = ROS1 (Homo sapiens (Human), UniProt P08922); assay: In vitro kinase activity inhibition assay (Caliper), ROS1; assay type: biochemical; conditions: read-out: ROS-1 IC50
# Sequence of ROS1 (P08922 28-2347, species assumed): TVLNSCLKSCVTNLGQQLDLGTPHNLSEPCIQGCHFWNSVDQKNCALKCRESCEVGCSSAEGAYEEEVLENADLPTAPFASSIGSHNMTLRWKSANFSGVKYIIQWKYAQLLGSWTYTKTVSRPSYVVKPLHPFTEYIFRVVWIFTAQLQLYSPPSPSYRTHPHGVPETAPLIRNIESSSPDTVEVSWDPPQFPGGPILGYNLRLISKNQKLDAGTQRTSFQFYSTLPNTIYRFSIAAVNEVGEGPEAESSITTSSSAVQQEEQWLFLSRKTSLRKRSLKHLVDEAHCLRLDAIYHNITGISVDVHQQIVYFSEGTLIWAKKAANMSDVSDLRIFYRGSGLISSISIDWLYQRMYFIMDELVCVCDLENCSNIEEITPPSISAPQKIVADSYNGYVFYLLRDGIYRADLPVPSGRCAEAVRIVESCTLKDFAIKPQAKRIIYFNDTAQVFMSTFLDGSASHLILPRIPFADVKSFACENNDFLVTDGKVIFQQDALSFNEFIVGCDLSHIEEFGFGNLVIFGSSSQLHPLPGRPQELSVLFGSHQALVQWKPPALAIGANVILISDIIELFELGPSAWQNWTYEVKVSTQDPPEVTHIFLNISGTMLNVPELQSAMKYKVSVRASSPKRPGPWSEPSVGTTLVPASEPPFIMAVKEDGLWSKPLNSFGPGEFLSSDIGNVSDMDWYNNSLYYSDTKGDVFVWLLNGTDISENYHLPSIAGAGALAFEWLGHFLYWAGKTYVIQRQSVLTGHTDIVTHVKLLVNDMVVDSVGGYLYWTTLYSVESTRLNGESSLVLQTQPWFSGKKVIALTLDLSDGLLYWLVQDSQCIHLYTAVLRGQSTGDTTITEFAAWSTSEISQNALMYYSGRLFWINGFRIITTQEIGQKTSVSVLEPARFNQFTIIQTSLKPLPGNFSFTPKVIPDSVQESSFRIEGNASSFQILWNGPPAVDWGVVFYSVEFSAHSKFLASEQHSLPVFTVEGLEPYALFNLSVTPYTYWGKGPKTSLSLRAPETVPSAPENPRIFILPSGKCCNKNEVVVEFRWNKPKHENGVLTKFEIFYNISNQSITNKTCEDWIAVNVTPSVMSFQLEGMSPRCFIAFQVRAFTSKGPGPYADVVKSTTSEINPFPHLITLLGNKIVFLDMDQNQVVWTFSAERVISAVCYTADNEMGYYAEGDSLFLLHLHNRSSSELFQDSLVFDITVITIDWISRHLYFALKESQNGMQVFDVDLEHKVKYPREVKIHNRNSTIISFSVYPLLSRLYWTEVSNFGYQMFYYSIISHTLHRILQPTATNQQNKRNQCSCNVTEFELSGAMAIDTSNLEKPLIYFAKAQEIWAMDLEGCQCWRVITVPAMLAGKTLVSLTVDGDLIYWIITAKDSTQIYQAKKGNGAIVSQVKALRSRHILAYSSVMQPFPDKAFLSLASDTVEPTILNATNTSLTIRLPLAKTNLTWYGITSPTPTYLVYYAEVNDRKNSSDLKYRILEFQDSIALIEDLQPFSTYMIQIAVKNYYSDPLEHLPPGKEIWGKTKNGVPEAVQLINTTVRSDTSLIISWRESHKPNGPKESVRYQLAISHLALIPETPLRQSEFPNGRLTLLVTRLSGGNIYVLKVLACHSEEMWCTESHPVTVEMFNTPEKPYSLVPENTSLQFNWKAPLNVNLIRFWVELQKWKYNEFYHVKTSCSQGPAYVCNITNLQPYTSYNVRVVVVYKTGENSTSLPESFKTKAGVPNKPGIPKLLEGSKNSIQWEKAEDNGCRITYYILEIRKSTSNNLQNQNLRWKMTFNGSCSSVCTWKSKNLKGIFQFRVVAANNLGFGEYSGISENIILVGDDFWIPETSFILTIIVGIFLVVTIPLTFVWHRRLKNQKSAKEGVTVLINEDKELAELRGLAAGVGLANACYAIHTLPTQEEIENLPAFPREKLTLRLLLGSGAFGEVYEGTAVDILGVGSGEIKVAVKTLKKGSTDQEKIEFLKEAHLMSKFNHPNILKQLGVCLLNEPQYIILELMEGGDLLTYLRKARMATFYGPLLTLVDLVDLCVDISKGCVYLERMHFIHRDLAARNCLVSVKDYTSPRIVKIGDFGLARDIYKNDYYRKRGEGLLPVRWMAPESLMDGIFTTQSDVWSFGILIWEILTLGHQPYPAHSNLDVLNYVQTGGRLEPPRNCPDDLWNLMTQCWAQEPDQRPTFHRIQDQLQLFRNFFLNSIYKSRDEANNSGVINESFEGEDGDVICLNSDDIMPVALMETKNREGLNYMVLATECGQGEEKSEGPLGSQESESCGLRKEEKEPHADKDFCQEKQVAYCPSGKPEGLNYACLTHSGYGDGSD
# Procedure: as §1, §2, §3, §4, §5, §6, §7, §8, §9, §10
# Transfer 5 μl of each well from the 96-well intermediate plate to a 384-well plate in duplicates. For example, A1 of the 96-well plate is transferred to A1 and A2 of the 384-well plate. A2 of the 96-well plate is transferred to A3 and A4 of the 384-well plate, and so on.
# 1) Prepare 2.5× enzyme solution Add kinase in 1× kinase base buffer. […]
SMILES,bioavailability [1],solubility [2],#LYMPH and/or % LYMPH in blood [3],#NEUT and/or % NEUT in blood [3],GI50 (TEL-NTRK1-BaF3 cell; 72 h),brain penetration ([4]; in vivo),IC50 (TRK-A),GI50 (TEL-NTRK1-BaF3 cell),IC50 (ROS1),Kp ([4]; brain)
"O=C(Nc1cnn2ccc(N3CCC[C@@H]3c3cc(F)ccc3F)nc12)N1CC[C@H](O)C1 [Compound 1, reference compound]",33%,310 µg/mL,slight decrease,slight increase trend,25 nM,low brain penetration,–,–,–,–
CN1CCN(Cc2ccc(C(=O)Nc3cnn4ccc(N5CCC[C@@H]5c5cc(F)ccc5F)nc34)cc2)CC1 [Compound 2],–,–,–,–,–,–,1.8 nM,< 1 nM,–,–
CN1CCN(Cc2ccc(C(=O)Nc3cnn4ccc(N5CCC[C@@H]5c5cc(F)ccc5F)nc34)cc2)CC1 [Compound 3],56%,36100 µg/mL,–,–,–,–,3 nM,3 nM,104 nM,5.47
CCS(=O)(=O)Nc1ccc(C(=O)Nc2cnn3ccc(N4CCC[C@@H]4c4cc(F)ccc4F)nc23)cc1 [Compound 4],–,310 µg/mL,–,–,24 nM,–,–,–,–,–
